Assay results as given in patent publication US20090062294A1, “HETEROARYL-SUBSTITUTED UREA MODULATORS OF FATTY ACID AMIDE HYDROLASE” (priority 2007, published 2009).
Counter-ions that a name gives are not always drawn.

How the values were obtained:
rat FAAH = biological target: T1, rat FAAH (Rattus norvegicus, UniProt P97612); assay: Assay Method 2: FAAH assay, 3H-anandamide hydrolysis in homogenate of SK-N-MC cells transfected with rat FAAH; assay type: biochemical; settings: average of results, > = solubility limit or highest concentration tested
T1 sequence (P97612 1-579): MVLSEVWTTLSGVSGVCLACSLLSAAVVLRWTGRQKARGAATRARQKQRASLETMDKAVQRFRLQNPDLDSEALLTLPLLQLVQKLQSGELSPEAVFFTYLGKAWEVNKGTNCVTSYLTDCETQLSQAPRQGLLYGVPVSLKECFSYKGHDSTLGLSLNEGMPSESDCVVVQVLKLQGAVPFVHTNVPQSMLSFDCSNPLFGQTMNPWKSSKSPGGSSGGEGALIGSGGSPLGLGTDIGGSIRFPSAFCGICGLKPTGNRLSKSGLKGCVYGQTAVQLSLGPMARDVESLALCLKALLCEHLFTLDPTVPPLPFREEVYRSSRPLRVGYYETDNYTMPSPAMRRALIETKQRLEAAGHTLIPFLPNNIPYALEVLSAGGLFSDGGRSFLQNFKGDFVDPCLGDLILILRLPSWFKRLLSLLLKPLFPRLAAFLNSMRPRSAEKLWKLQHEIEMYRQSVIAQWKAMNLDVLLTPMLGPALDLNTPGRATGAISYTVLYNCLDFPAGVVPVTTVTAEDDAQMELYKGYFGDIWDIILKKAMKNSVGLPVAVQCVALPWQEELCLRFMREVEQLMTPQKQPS
Procedure, shortened: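 Homogenate of SK-N-MC cells stably transfected with rat FAAH cDNA (G418-selected clones) in pH 9 Tris/EDTA/glycerol/Triton buffer. Incubated with compound and 80 nM final [3H]-anandamide for 1 h at rt. Released [3H]-ethanolamine separated from substrate on activated charcoal filters and counted by scintillation.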

[1] = tested on: mechanical (tactile) allodynia in the left hind paw; assay: Assay Method 3: Rat Mild Thermal Injury Model (MTI), mechanical allodynia; assay type: in vivo, Sprague-Dawley rats; settings: 0.5 h after administration
Excerpt: Assay Method 3—Rat Mild Thermal Injury Model (MTI)
Pathogen-free, male albino Sprague-Dawley rats were purchased from Harlan Industries (San Diego, Calif.) and maintained on a 12-h light/dark cycle (lights on at 9:00 AM and off at 9:00 PM) in a climate-controlled room. Food and water were available ad libitum up to the time of the testing.
Under isoflurane/oxygen anesthesia, a first-degree burn injury (erythema without blistering) was produced as follows: the plantar surface of the rat's left hind paw was placed on water-dampened 56° C. hotplate for 20 seconds and steady contact was maintained by applying an 84 g weight to the dorsum (after Nozaki-Taguchi & Yaksh, Neurosci. Lett. 1998, 254, 25-28).
Mild thermal injury results in mechanical allodynia in the left hind paw. Mechanical (tactile) allodynia was assessed by determining the median threshold at which the affected paw was withdrawn from graded stimuli (von Frey filaments ranging from 0.41 to 15.8 g) applied perpendicularly with sufficient force to bend slightly and held for 2-3 seconds against the proximal half of the third and fourth toe surfaces through wire-mesh observation cages. Paw flinching during or immediately following the removal of the stimulus was considered a positive response. A paw withdrawal threshold (PWT) was determined by sequentially increasing and decreasing the stimulus strength and analyzing withdrawal data using an adaptation of the Dixon up-down method, as described (Chaplan et al., J. Neurosci. 1994, 53, 55-63). Rats were included in the study only if their baseline PWT was 3.1623 g or lower (4.5 logarithmically).
Rats were tested for pre-injury thresholds prior to mild thermal injury and again for baseline thresholds after development of mechanical allodynia. Immediately after baseline measurement, test compound or vehicle was administered orally and the measurement was repeated at 0.5 h after administration. The tactile thresholds (log value) were converted to percent of a maximum possible effect ( %MPE): % MPE=[Threshold(t)−Threshold(baseline)]*100/[Threshold(pre)−Threshold(baseline)], where t=post-treatment time. Data were expressed as mean±standard error of the mean (S.E.M.). Statistical analysis was performed using two-way ANOVA with repeated measures with a significance level of p<0.05.
Results for compounds tested in this assay are presented in Table 2, as an average of results obtained. Compounds were tested in free base, hydrochloride salt, and/or trifluoroacetic acid salt forms.

FAAH = biological target: T2, FAAH (Homo sapiens, UniProt O00519); assay: Assay Method 1: FAAH assay, 3H-anandamide hydrolysis in homogenate of T84 cells or SK-N-MC cells transfected with human FAAH; assay type: biochemical; settings: average of results, > = solubility limit or highest concentration tested
T2 sequence (O00519 1-579): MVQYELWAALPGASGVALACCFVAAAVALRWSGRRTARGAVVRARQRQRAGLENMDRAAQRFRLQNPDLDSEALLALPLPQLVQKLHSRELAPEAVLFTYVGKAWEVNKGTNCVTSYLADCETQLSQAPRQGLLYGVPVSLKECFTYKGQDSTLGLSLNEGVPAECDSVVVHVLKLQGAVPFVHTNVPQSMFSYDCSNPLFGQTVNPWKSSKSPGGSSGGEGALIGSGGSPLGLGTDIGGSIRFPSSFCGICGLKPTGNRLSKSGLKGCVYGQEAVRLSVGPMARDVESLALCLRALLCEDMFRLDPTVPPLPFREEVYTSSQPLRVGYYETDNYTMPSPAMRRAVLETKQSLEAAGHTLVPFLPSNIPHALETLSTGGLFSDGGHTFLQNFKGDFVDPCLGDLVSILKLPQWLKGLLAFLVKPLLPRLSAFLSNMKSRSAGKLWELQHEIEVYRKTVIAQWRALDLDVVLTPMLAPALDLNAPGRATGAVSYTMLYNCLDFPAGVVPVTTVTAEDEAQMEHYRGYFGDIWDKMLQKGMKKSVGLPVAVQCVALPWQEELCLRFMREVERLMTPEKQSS
Procedure, shortened: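 Homogenates of T84 cells or of SK-N-MC cells stably transfected with human FAAH (G418-selected) were prepared in pH 9 Tris/EDTA/glycerol/Triton buffer. They were incubated with compound and 80 nM final ^3H-anandamide for 1 h at rt. Released ^3H-ethanolamine was separated on activated charcoal and counted by scintillation.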

| SMILES | IC50 (rat FAAH) | IC50 (FAAH) | % MPE ([1]; 20 mg/Kg p.o., mean +/- S.E.M.) | % MPE ([1]; 6 mg/Kg p.o.) |
| --- | --- | --- | --- | --- |
| O=C(Nc1noc2ccccc12)N1CCN(Cc2cccc(Oc3ccc(Cl)cc3)c2)CC1 [Example 36, 4-[3-(4-Chloro-phenoxy)-benzyl]-piperazine-1-carboxylic acid benzo[d]isoxazol-3-ylamide trifluoroacetic acid salt] | 10 nM |  | 38 +/− 13% |  |
| O=C(Nc1ccon1)N1CCN(Cc2cccc(Oc3ccc(Cl)cc3)c2)CC1 [Example 46, 4-[3-(4-Chloro-phenoxy)-benzyl]-piperazine-1-carboxylic acid isoxazol-3-ylamide trifluoroacetic acid salt] |  |  |  | 0% |
| O=C(Nc1cnccn1)N1CCN(Cc2cc3ccccc3o2)CC1 [Example 230, 4-Benzofuran-2-ylmethyl-piperazine-1-carboxylic acid pyrazin-2-ylamide] | 6000 nM | 4000 nM |  |  |
| O=C(Nc1cnccn1)N1CCN(Cc2cccc(Oc3ccc4ncccc4c3)c2)CC1 [Example 232, N-Pyrazin-2-yl-4-[3-(quinolin-6-yloxy)benzyl]piperazine-1-carboxamide] | 240 nM | 40 nM |  |  |
| N#Cc1ccc(Oc2cccc(CN3CCN(C(=O)Nc4cnccn4)CC3)c2)cc1C(F)(F)F [Example 236, 4-{3-[4-Cyano-3-(trifluoromethyl)phenoxy]benzyl}-N-Pyrazin-2-ylpiperazine-1-carboxamide] | 8000 nM | 300 nM |  |  |
| O=C(Nc1cnccn1)N1CCN(Cc2cccc(Oc3ccc4c(c3)OC(F)(F)O4)c2)CC1 [Example 237, 4-{3-[(2,2-Difluoro-1,3-benzodioxol-5-yl)oxy]benzyl}-N-pyrazin-2-ylpiperazine-1-carboxamide] | 30 nM | 5 nM |  |  |
| O=C(Nc1cnccn1)N1CCN(Cc2ccc3ccccc3n2)CC1 [Example 239, N-Pyrazin-2-yl-4-(quinolin-2-ylmethyl)piperazine-1-carboxamide] | 6000 nM | 700 nM |  |  |
| O=C(Nc1cnccn1)N1CCN(Cc2cccc(Oc3ccc(F)c(C(F)(F)F)c3)c2)CC1 [Example 241, 4-{3-[4-Fluoro-3-(trifluoromethyl)phenoxy]benzyl}-N-pyrazin-2-ylpiperazine-1-carboxamide] | 370 nM | 8 nM |  |  |
| O=C(Nc1cnccn1)N1CCN(Cc2cccc(Oc3cccc(OC(F)(F)F)c3)c2)CC1 [Example 242, N-Pyrazin-2-yl-4-{3-[3-(trifluoromethoxy)phenoxy]benzyl}piperazine-1-carboxamide] | 50 nM | 9 nM |  |  |
| O=C(Nc1cc(-c2ccccc2)[nH]n1)N1CCN(Cc2cccc(Oc3ccc(Cl)cc3)c2)CC1 [Example 244, 4-[3-(4-Chlorophenoxy)benzyl]-N-(5-phenyl-1H-pyrazol-3-yl)piperazine-1-carboxamide trifluoroacetate salt] | 7000 nM | 1400 nM |  |  |

Second part, led by results:

| IC50 (rat FAAH) | IC50 (FAAH) | SMILES | % MPE ([1]; 20 mg/Kg p.o., mean +/- S.E.M.) | % MPE ([1]; 6 mg/Kg p.o.) |
| --- | --- | --- | --- | --- |
| 9 nM |  | O=C(Nc1cnccn1)N1CCN(Cc2cccc(Oc3ccc(Cl)cc3)c2)CC1 [Example 58, 4-[3-(4-Chloro-phenoxy)-benzyl]-piperazine-1-carboxylic acid pyrazin-2-ylamide trifluoroacetic acid salt] | 52 +/− 7% |  |
| 40 nM | 6 nM | O=C(Nc1cnccn1)N1CCN(Cc2cccc(Oc3ccc(S(=O)(=O)C(F)(F)F)cc3)c2)CC1 [Example 226, N-Pyrazin-2-yl-4-(3-{4-[(trifluoromethyl)sulfonyl]phenoxy}benzyl)-piperazine-1-carboxamide] |  |  |
| 5300 nM | 400 nM | O=C(Nc1cnccn1)N1CCN(Cc2cccc(Oc3ccccc3)c2)CC1 [Example 227, 4-(3-Phenoxy-benzyl)-piperazine-1-carboxylic acid pyrazin-2-ylamide] |  |  |
| 80 nM | 30 nM | O=C(Nc1cnccn1)N1CCN(Cc2cccc(Oc3ccc4ccccc4c3)c2)CC1 [Example 228, 4-[3-(Naphthalen-2-yloxy)-benzyl]-piperazine-1-carboxylic acid pyrazin-2-ylamide] |  |  |
| 3000 nM | 200 nM | N#Cc1ccc(Oc2cccc(CN3CCN(C(=O)Nc4cnccn4)CC3)c2)cc1 [Example 229, 4-[3-(4-Cyano-phenoxy)-benzyl]-piperazine-1-carboxylic acid pyrazin-2-ylamide] |  |  |
| 3600 nM | 130 nM | O=C(Nc1cnccn1)N1CCN(Cc2cccc(Oc3ccc(F)c(F)c3)c2)CC1 [Example 231, 4-[3-(3,4-Difluorophenoxy)benzyl]-N-pyrazin-2-ylpiperazine-1-carboxamide] |  |  |
| 140 nM | 10 nM | O=C(Nc1cnccn1)N1CCN(Cc2cccc(Oc3ccc(OC(F)(F)F)cc3)c2)CC1 [Example 233, N-Pyrazin-2-yl-4-{3-[4-(trifluoromethoxy)phenoxy]benzyl}piperazine-1-carboxamide] |  |  |
| 12 nM | 6 nM | O=C(Nc1cnccn1)N1CCN(Cc2cccc(Oc3ccc(SC(F)(F)F)cc3)c2)CC1 [Example 234, N-Pyrazin-2-yl-4-(3-{4-[(trifluoromethyl)sulfanyl]phenoxy}benzyl)-piperazine-1-carboxamide] |  |  |
| 6000 nM | 600 nM | N#Cc1cccc(Oc2cccc(CN3CCN(C(=O)Nc4cnccn4)CC3)c2)c1 [Example 235, 4-[3-(3-Cyanophenoxy)benzyl]-N-pyrazin-2-ylpiperazine-1-carboxamide] |  |  |
| 1600 nM | 200 nM | O=C(Nc1cnccn1)N1CCN(Cc2cccc(Oc3ccccc3Cl)c2)CC1 [Example 238, 4-[3-(2-Chlorophenoxy)benzyl]-N-pyrazin-2-ylpiperazine-1-carboxamide] |  |  |
| 80 nM | 20 nM | O=C(Nc1cnccn1)N1CCN(Cc2cccc(Oc3cccc(Br)c3)c2)CC1 [Example 240, 4-[3-(3-Bromophenoxy)benzyl]-N-pyrazin-2-ylpiperazine-1-carboxamide] |  |  |
| 9 nM | 2 nM | O=C(Nc1nccnc1Cl)N1CCN(Cc2cccc(Oc3ccc(Cl)cc3)c2)CC1 [Example 243, 4-[3-(4-Chlorophenoxy)benzyl]-N-(3-chloropyrazin-2-yl)piperazine-1-carboxamide] |  |  |
| 199 nM |  | O=C(Nc1cccnn1)N1CCN(Cc2cccc(Oc3ccc(Cl)cc3)c2)CC1 [Example 246, 4-[3-(4-Chloro-phenoxy)-benzyl]-piperazine-1-carboxylic acid pyridazin-3-ylamide] | 32 +/− 3% |  |
